According to PMC4004252 (Journal of the American Chemical Society, 2014):
Each block holds one compound with its values, some of them ahead of it.

Key:
ctDNA = ctDNA absorption spectroscopy titration of ethidium bromide; type: binding, calf; settings: value for EB in main text
Top1 [1] = target: T1, Top1 (Homo sapiens, UniProt P11387); type: biochemical
T1 sequence (P11387 1-765): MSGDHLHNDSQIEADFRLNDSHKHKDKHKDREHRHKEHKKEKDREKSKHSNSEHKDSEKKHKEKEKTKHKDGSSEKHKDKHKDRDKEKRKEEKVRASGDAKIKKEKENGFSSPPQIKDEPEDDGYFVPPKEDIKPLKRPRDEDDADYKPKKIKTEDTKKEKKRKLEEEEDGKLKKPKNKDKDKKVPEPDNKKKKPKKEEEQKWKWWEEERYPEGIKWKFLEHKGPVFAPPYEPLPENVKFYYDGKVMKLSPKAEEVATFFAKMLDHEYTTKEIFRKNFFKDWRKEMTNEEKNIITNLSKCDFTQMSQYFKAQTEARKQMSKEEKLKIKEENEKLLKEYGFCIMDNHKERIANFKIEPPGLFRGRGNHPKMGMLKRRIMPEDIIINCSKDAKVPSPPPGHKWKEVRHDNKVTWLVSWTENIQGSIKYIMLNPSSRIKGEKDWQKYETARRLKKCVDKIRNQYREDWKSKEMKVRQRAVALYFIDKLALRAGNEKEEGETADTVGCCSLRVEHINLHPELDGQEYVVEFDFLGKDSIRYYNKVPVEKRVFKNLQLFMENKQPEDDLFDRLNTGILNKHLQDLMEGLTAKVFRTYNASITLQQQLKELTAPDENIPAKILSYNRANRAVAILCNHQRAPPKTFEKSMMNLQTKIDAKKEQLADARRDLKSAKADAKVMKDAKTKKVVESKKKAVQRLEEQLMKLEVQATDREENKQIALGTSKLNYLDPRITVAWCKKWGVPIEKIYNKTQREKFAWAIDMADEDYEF

[2] = test system: relaxed pHOT1 plasmid DNA; test: DNA unwinding assay, relaxed pHOT1 as substrate; type: biochemical; settings: 10 units Top1, 37 °C
Top1 [3] = target: T1, Top1; test: Standard Top1 scDNA relaxation assay; type: biochemical

SMILES: CC[n+]1c(-c2ccccc2)c2cc(N)ccc2c2ccc(N)cc21 [EB, ethidium bromide]
- KA, ctDNA affinity constant (ctDNA): 5(1) × 10^6 M^–1 bp

SMILES: O=C1c2c(O)ccc(O)c2C(=O)c2c(NCCNCCO)ccc(NCCNCCO)c21 [MTX, mitoxantrone]
- dose at which switch to catalytic inhibition of Top1 occurs (Top1 [1]): 1 to 10 µM
- PicoGreen relative fluorescence readout (Top1 [1]; doses of 0.1 and 1 μM): positive

- dose giving complete inhibition of the enzyme (Top1 [3]): 50 µM
SMILES: COc1cc(NS(C)(=O)=O)ccc1Nc1c2ccccc2nc2ccccc12 [m-AMSA, 4′-(9-acridinylamino)methanesulfon-m-anisidide]
- concentration giving the Gaussian distribution of DNA topoisomers [2]: 50 µM
